Paper PMC9658513, “Discovery of Compounds That Selectively Repress the Amyloidogenic Processing of the Amyloid Precursor Protein: Design, Synthesis and Pharmacological Evaluation of Diphenylpyrazoles” (International Journal of Molecular Sciences, 2022)
Like-named read-outs stand apart in the source and are kept apart here.

Tests used:
p62/LC3 = test: Ratio between p62 and LC3 expression levels; type: cell-based, human; conditions: 24 h, SY5Y-APP^wt cells
Source text: Compounds from both series were selected to first determine the potential relationship between the repression of Aβ1–x production and the increased expression of LC3 and p62. […] We then also considered the ratio between the p62 and LC3 expression levels.
Figure 3 Effect of compounds 24, 33, 34, 57, 65, 67, 70, and 71 on the autophagic flux in SY5Y-APP^wt cells. […] Cell lysates were immunolabeled with the following antibodies: p62 (a), LC3 (b), and β-actin. Statistical significance was set at * p < 0.05, ** p < […], *[…], **** p < 0.0001, and ns as not significant.

p62 = test: Autophagic flux: p62 expression by Western blot; type: cell-based, human; conditions: Homo sapiens, 24 h, 0.1 µM (100 nM), SY5Y-APP^wt cells, vs control
Source text: (§1) Previous work dedicated to compounds of family C [22] has underlined the effect of our compounds on autophagic flux and the lysosomal degradation pathways. More precisely, the role of the amino side chains and their number was highlighted. Therefore, we assessed whether the activity of compounds involved the modulation of lysosomal activities toward the accumulation of APP-CTFs and AICD. Thus, we studied the effect of a selection of compounds on the autophagic flux, more particularly, we evaluated the effect of compounds 24, 33, 34, 57, 65, 67, 70, and 71 on two markers associated with autophagy: p62 and LC3-I lipidation into LC3-II. To the previous selection of efficient compounds decreasing Aβ1–x production and increasing CTFα and AICD, we added compound 65 with no cytotoxicity at 100 µM. As a comparison, we also selected compound 57 with a hydroxymethyl substituent as a control. In addition to CQ, bafilomycin A, a well-known inhibitor of autophagic flux, was used as a control. Treatment with compounds 67 and 71 induced an increase in p62 expression by 2.5 and 4-fold, respectively, compared to the control condition (Figure 3). […] An increase in the two markers was also observed with compound 57, but to a smaller extent (1.7-fold for p62 and 2-fold for LC3-I/LC3-II).
(§2) The human neuroblastoma cell line SY5Y-APP^695WT was maintained in Dulbecco’s modified Eagle medium (DMEM, high glucose, pyruvate—GIBCO, Life Technologies, Carlsbad, CA, USA) supplemented with 10% fetal bovine serum, 2 mM L-glutamine, 1 mM non-essential amino acids and penicillin/streptomycin (GIBCO, Life Technologies, Carlsbad, CA, USA) at 37 °C in a 5% CO2 humidified incubator [36]. For compound treatment, a 10 mM stock solution was diluted in freshly supplemented DMEM medium to obtain the precise final concentration of the drug. Cells were plated at a density of 5 × 10^5 cells per well into 12-well plates and cultured with 1 mL supplemented DMEM cell medium for 24 h before compound exposure. The following day, the cell medium was replaced with fresh medium containing the compounds diluted at the indicated concentrations. Cells were treated for 24 h. At the end of the treatments, the cell medium was collected and kept at −80 °C until use, cells were rinsed once with PBS and extracted in 100 µL of Laemmli buffer (10 mM Tris, 20% glycerol, and 2% sodium dodecyl sulfate) using a cell-scraper. The cell lysate was further sonicated (30 pulses of 0.5 s, 60 Hz) for 5 min. Total protein concentration was determined using the Pierce BCA Protein Assay Kit (Thermo Scientific, Waltham, MA, USA) according to the manufacturer’s instructions. Samples were stored at −80 °C until analysis.
(§3) Cell protein lysates were prepared for Western blot analysis by diluting the sample with 1 volume of NuPAGE® lithium dodecyl sulfate (LDS) 2X sample buffer supplemented with 20% NuPAGE® sample reducing agents (Invitrogen). Samples were heated for 10 min at 100 °C. Ten µg of total proteins per well were loaded onto precast 4–12% Criterion XT Bis-Tris polyacrylamide gels (Bio-Rad) and electrophoresis was achieved after applying a tension of 150 V for 90 min using a Criterion electrophoresis cell with the NuPAGE® MOPS SDS running buffer (1X). Proteins were transferred to a nitrocellulose membrane of […] pore size (G&E Healthcare, Madison, WI, USA) using the Criterion blotting system and applying a tension of 100 V for 45 min. To resolve proteins of low molecular weights such as carboxy-terminal fragments of APP, 12% Criterion XT Bis-Tris polyacrylamide gels (Bio-Rad, Hercules, CA, USA) were used, and electrophoresis was performed for 70 min at 150 V in a NuPAGE® MES SDS running buffer (1X). Proteins were transferred to a nitrocellulose membrane of 0.2 µm pore size (G&E Healthcare, Madison, WI, USA) at 100 V for 40 min. Molecular weight calibration was achieved using molecular weight markers (Novex and Magic Marks, Life Technologies, Carlsbad, CA, USA). […]

LC3 = test: Autophagic flux: LC3-I lipidation into LC3-II by Western blot; type: cell-based; conditions: Homo sapiens, 24 h, 0.1 µM (100 nM), SY5Y-APP^wt cells, vs control
Source text: as §1, §2, §3

Aβ1–40 peptide secretion = test: Aβ1–40 secretion in cell medium by ELISA; type: cell-based, human; conditions: SY5Y-APP^WT cells, 24 h treatment, mean ± SD of at least three experiments in triplicate, read-out: Aβ1–40 IC50
Protocol: (§4) The final and selected intermediate compounds were evaluated for their ability to modulate APP processing in the SH-SY5Y human neuroblastoma cell line stably expressing the neuronal isoform of human wild-type APP^695 (SY5Y-APP^WT), a well-established model for the study of APP metabolism. APP carboxy-terminal fragments (αCTFs and AICD) levels were assessed by Western blotting (WB). The effect of the reference and test compounds on αCTFs and AICD is expressed as the intensity of corresponding WB bands. The concentration of compounds able to increase 20-times αCTFs and AICD (C20) when compared to the control condition was calculated. Selected compounds were also evaluated for their ability to modulate the secretion of soluble APP fragments (sAPPα and sAPPβ). Aβ1–x levels (Aβ1–40 and Aβ1–42) after treatment with the reference and tested compounds were measured in the cell media by ELISA (Table 1). […] Selected hit compounds were then further evaluated for their ability to decrease the level of N-truncated Aβ peptides (Aβx–38, Aβx–40, and Aβx–42).
as §2
(§5) Conditioned media of SY5Y-APP^695WT collected at the end of treatments were centrifuged at 1000× g for 5 min to eliminate cell debris.
(§6) Aβ1–40/Aβ1–42 peptides, Aβx–38/Aβx–40/Aβx–42, and sAPPα/sAPPβ concentrations in pg/mL were determined, respectively, using amyloid-beta 40 and 42 Human ELISA Kits (Invitrogen), the V-PLEX Plus Aβ Peptide Panel 1 (4G8) Kit (Meso Scale Diagnostics, MSD R©, Rockville, MD, USA), and the sAPPα/sAPPβ Multiplex Kit (Meso Scale Diagnostics, MSD R©, Rockville, MD, USA) according to the manufacturer’s instructions.

in vitro = type: cell-based, human; conditions: human
Protocol: (§7) Cytotoxicity was measured using 3-(4,5-dimethylthiazol-2-yl)-5-(3-carboxymethoxyphenyl)-2-(4-sulfophenyl)-2H-tetrazolium (MTS) tests. SY5Y-APP^695WT cells were plated in a 96-well plate at 3 × 10^4 cells per well and allowed to attach for 24 h. Cells were then incubated for 72 h with 100 µL of DMEM with 10% SVF containing (or not) the defined concentration of drugs. Cytotoxicity was determined by using the colorimetric MTS assay (Cell Titer 96® Aqueous One Solution Cell Proliferation Assay-MTS Promega, Madison, WI, USA) according to the manufacturer’s instructions. Absorbance was read at 490 nm.

Aβ1–42 peptide secretion = test: Aβ1–42 secretion in cell medium by ELISA; type: cell-based, human; conditions: SY5Y-APP^WT cells, 24 h treatment, mean ± SD of at least three experiments in triplicate
Protocol: as §4, §2, §5, §6

[1] = test system: αCTF (APP carboxy-terminal fragment); test: αCTF level by Western blotting in SY5Y-APP^WT cells; type: cell-based, human; conditions: concentration increasing αCTF 20-fold vs untreated control, SY5Y-APP^WT cells, read-out: αCTF (C20)
Protocol: as §4, §2
as §3, with “USA). Protein transfer and quality were determined by a reversible Ponceau Red coloration (0.2% xylidine Ponceau Red and 3% trichloroacetic acid).” for “USA).”

[2] = test system: AICD (APP intracellular domain); test: AICD level by Western blotting in SY5Y-APP^WT cells; type: cell-based, human; conditions: concentration increasing AICD 20-fold vs untreated control, read-out: AICD (C20)
Protocol: as §4, §2
as §3, with “USA). Protein transfer and quality were determined by a reversible Ponceau Red coloration (0.2% xylidine Ponceau Red and 3% trichloroacetic acid).” for “USA).”

SY5Y-APP^695WT cells = test: in vitro; type: cell-based, human
Protocol: as §7

IC50 (Aβ1–40 peptide secretion; Homo sapiens) [µM] | IC50 (Aβ1–42 peptide secretion; Homo sapiens) [µM] | IC50 (Aβ1–40 peptide secretion) [µM] | IC50 (Aβ1–42 peptide secretion) [µM] | Compound | CC50 at 72 h (in vitro) [µM] | EC (20-fold increase) ([1]; Homo sapiens) [µM] | EC (20-fold increase) ([2]; Homo sapiens) [µM] | CC50 (SY5Y-APP^695WT cells) [µM] | EC (20-fold increase) [1] [µM] | EC (20-fold increase) [2] [µM] | also measured
 |  |  |  | CO/C1=C\C(C)=C\[C@@H](C)[C@@H](O)[C@@H](C)C/C(C)=C/C=C/[C@H](OC)[C@@H]([C@@H](C)[C@@H](O)[C@H](C)[C@@]2(O)C[C@@H](O)[C@H](C)[C@@H](C(C)C)O2)OC1=O [Baf A1, bafilomycin A1, reference compound] |  |  |  |  |  |  | p62/LC3 (p62/LC3; 0.1 µM (100 nM)): 0.31; fold induction at 0.1 µM (p62): 1.48; fold induction at 0.1 µM (LC3): 4.68
2.2 ± 0.3 | 2.5 ± 1 |  |  | Cc1cn(-c2cccc(CN(C)CCCN(C)C)c2)nc1-c1cccc(CN(C)C)c1 [Compound 66, N′-[[3-[3-[3-(Dimethylaminomethyl)phenyl]-4-methyl-pyrazol-1-yl]phenyl]methyl]-N,N,N’-trimethyl-propane-1,3-diamine] | 47 | 2.2 | 2.4 |  |  |  | 
1.2 ± 0.1 | 1.6 ± 0.1 |  |  | Cc1cn(-c2cccc(CN3CCN(C)CC3)c2)nc1-c1ccc(CN(C)CCCN(C)C)cc1 [Compound 68, [3-(Dimethylamino)propyl](methyl){[4-(4-methyl-1-{3-[(4-methylpiperazin-1-yl)methyl]phenyl}-1H-pyrazol-3-yl)phenyl]methyl}amine] | 6 | 1 | 1 |  |  |  | 
2.6 ± 0.2 | 3.3 ± 0.1 |  |  | Cc1cn(-c2cccc(CN(C)CCCN(C)C)c2)nc1-c1cccc(CN(C)CCCN(C)C)c1 [Compound 72, N′-[[3-[1-[3-[[3-(Dimethylamino)propyl-methyl-amino]methyl]phenyl]-4-methyl-pyrazol-3-yl]phenyl]methyl]-N,N,N′-trimethyl-propane-1,3-diamine] | 26 | 0.6 | 0.8 |  |  |  | 
 |  | 12.4 ± 0.6 | 13.2 ± 0.2 | N′-[[3-[4-[3-(Dimethylamino)propyl]-3-[4-[3-(dimethylamino)propyl]phenyl] Pyrazol-1-yl]phenyl]methyl]-N,N,N′-trimethyl-propane-1,3-diamine [Compound 35] |  |  |  | > 100 | 5.1 | 5.4 | p62/LC3 (p62/LC3; compound at 3 µM): ~1
 |  | 4.2 ± 0.1 | 6.1 ± 0.3 | N′-[[4-[4-(Dimethylaminomethyl)-3-[4-[3-(dimethylamino)propyl]phenyl] Pyrazol-1-yl]phenyl]methyl]-N,N,N′-trimethyl-propane-1,3-diamine [Compound 32] |  |  |  | > 100 | 1.1 | 1.8 | 
